{"source": "patent US11419902B2", "about": "“Compositions comprising bacterial strains” (4D Pharma Research Limited, priority 2018, dated 2022)", "key": {"DRD2": {"tested_on": "DRD2", "test": "DRD2 expression in SH-SY5Y cells", "type": "cell-based", "conditions": "vs untreated cells", "experimental": "SH-SY5Y were plated in 10 cm petri dishes a density of 2×10^6 cells. After 24 h cells were treated in differentiation medium (growth medium containing 1% FBS without RA) with 10% bacteria supernatants or YCFA+, 10 uM RA, 200 uM hexanoic acid or 200 uM valproic acid, for 17 hrs. There after representative images were taken using phase contrast EVOS XL core microscope at 40×10.65 magnification. Cells were collected, and total RNA was isolated according to RNeasy mini kit protocol (Qiagen). cDNAs were made using the high capacity cDNA reverse transcription kit (Applied Biosystems). Gene expression was measured using qPCR. GAPDH was used as internal control. Fold change was calculated according to the 2^(−ΔΔct) method.\nThe inventors measured the change in DRD2 expression in neuroblastoma cells using the same method as described in Example 1."}, "IL-8 [1]": {"tested_on": "IL-8", "test": "IL-8 secretion in MG U373 cells (ELISA)", "type": "cell-based, human", "conditions": "10% bacteria supernatant 24 h, independently of the presence of LPS (1 ug/mL)", "experimental": "MG U373 is a human glioblastoma astrocytoma derived from a malignant tumour and were purchased from Sigma-Aldrich (cat n. 08061901-1VL). MG U373 human glioblastoma astrocytoma cells were grown in MEM (Sigma Aldrich, cat n. M-2279) supplemented with 10% FBS, 1% Pen Strep, 4 mM L-Glut, 1×MEM Non-essential Amino Acid solution and 1× Sodium Piruvate.\nOnce grown the MG U373 cells were plated on 24-well plate at 100,000 cells/well. The cells were treated with LPS (1 ug/mL) alone or with 10% of bacteria supernatant from MRx0029 for 24 h. LPS is a known stimulator of proinflammatory cytokines such as IL-8. Afterwards the cell free supernatants were collected, centrifuged at 10,000 g for 3 min at 4° C. IL-8 was measured using Human IL-8 ELISA Kit from Peprotech (cat n. #900-K18) according to manufacturer instruction."}, "IL-6": {"tested_on": "IL-6", "test": "IL-6 secretion by astrocytoma cell line U373 (ELISA)", "type": "cell-based, Human", "conditions": "U373 cells, 100 μl bacteria supernatant, 24 h, vs untreated and YCFA+ controls"}, "IL-8 [2]": {"tested_on": "IL-8", "test": "IL-8 secretion in HMC3 cells (ELISA)", "type": "cell-based, Human", "conditions": "10% cell-free supernatant 24 h, in the absence of stimulation (no TNF-α)", "experimental": "Human microglia HMC3 cells were grown in glutamine-supplemented EMEM media containing 15% heat inactivated FBS and 100 U/ml penicillin and 100 μg/ml streptomycin. HMC3 cells were plated in 24 well plates at a density of 50,000 cells/well. Cells were left in CO2 incubator to rest for 48 h. The cells were then washed in blank EMEM and pre-treated in 2% FBS growth media with 10 ng/ml TNF-α for 1 h. Thereafter 10% cell-free bacterial supernatants for NCIMB 42787 stationary growth cultures (isolated as described above) were added to TNF-α-treated and untreated wells and incubated in CO2 incubator at 37° C. for 24 h. Cell-free supernatants were collected and centrifugated at 10,000×g for 3 min and 4° C. Samples were aliquoted in 1.5 ml microtubes and stored in −80° C. for hIL-8 ELISA.\nSecretion of IL-8 was analysed using hIL-8 Standard ELISA Kits, according to the manufacturer's protocol in the cell-free supernatants from HMC3 cells treated as described above. Samples were measured at 405 nm with correction wavelength set at 655 nm on a microplate reader (iMark, Bio-Rad). Raw data were plotted and analysed using GraphPad Prism 7 software."}, "IL-8 [3]": {"tested_on": "IL-8", "test": "IL-8 secretion in U373 cells treated with SCFAs or supernatant fractions (ELISA)", "type": "cell-based, Human", "conditions": "U373 cells, with or without 1 μg/ml LPS, 24 h", "experimental": "Human glioblastoma astrocytoma cell line (U373), were maintained in 25 ml MEME 4.5 g/L D-glucose supplemented with 10% heat-inactivated FBS, 4 mM L-Glutamine, 100 U/ml penicillin, 100 μg/ml streptomycin and 5 μg/ml plasmocin, 1% Non-Essential Amino Acids, 1% Sodium Pyruvate (referred to as full growth media).\nU373 cells were prepared as described above. Cells were pre-treated for 1 h with 1 μg/ml LPS indicated above and incubated at 37° C. and 5% CO2. After 1 h pre-incubation, cells were removed from CO2 incubator and treated with increasing concentration of fresh prepared Sodium Butyrate (SB), Sodium Valerate (SV) and Hexanoic Acid (HA).\nU373 cells were prepared as described above. Cells were pre-treated for 1 h with 1 μg/ml LPS as indicated above. Afterwards, cells were removed from CO2 incubator and treated with 100 μl of the different fractions. Fractions from media were used as controls. Cell-free supernatants were collected 24 h after treatment and analysed by ELISA for IL-8 secretion (as outlined above)."}}}
{"substance": "Megasphaera massiliensis MRx0029", "values": [{"measurement": "expression of DRD2", "setting": "DRD2", "result": "significantly decreased the expression of DRD2"}, {"measurement": "IL-8 secretion", "setting": "IL-8 [1]", "result": "Increases IL-8 Secretion"}, {"measurement": "IL-6 secretion", "setting": "IL-6", "result": "upregulates IL-6 secretion"}, {"measurement": "IL-8 secretion", "setting": "IL-8 [2]", "result": "induces IL-8 secretion"}, {"measurement": "IL-8 secretion in the presence and absence of LPS", "setting": "IL-8 [3]", "result": "induced IL-8 secretion"}]}
